From patent US20170044492A1, “CONVERSION OF SOMATIC CELLS INTO NOCICEPTORS, AND METHODS OF USE THEREOF” (CHILDERN'S MEDICAL CENTER CORPORATION, priority 2013, published 2017)
Where “and” joins values, the source holds several entries; their conditions need not be identical. Identical values can stand only once. Like-named read-outs stand apart in the source and are kept apart here.

Assays:
induced nociceptors [1] = assay type: cell-based, mouse
[2] = tested on: tdTomato-positive induced neurons; experiment: Whole-cell patch clamp of induced nociceptors; assay type: cell-based, mouse
induced human neurons = experiment: Whole-cell patch clamp of induced human neurons; assay type: cell-based
TrpV1 receptor = target: T1, TrpV1 receptor (Mus musculus, UniProt Q704Y3); experiment: PGE2 sensitization of the capsaicin response, calcium imaging of induced nociceptors; assay type: cell-based
T1 construct: endogenous in cells; host or cells: tdTomato-positive induced nociceptors reprogrammed from TrpV1-Cre+/-::tdTomato+/- mouse embryonic fibroblasts
T1 sequence (Q704Y3 whole entry): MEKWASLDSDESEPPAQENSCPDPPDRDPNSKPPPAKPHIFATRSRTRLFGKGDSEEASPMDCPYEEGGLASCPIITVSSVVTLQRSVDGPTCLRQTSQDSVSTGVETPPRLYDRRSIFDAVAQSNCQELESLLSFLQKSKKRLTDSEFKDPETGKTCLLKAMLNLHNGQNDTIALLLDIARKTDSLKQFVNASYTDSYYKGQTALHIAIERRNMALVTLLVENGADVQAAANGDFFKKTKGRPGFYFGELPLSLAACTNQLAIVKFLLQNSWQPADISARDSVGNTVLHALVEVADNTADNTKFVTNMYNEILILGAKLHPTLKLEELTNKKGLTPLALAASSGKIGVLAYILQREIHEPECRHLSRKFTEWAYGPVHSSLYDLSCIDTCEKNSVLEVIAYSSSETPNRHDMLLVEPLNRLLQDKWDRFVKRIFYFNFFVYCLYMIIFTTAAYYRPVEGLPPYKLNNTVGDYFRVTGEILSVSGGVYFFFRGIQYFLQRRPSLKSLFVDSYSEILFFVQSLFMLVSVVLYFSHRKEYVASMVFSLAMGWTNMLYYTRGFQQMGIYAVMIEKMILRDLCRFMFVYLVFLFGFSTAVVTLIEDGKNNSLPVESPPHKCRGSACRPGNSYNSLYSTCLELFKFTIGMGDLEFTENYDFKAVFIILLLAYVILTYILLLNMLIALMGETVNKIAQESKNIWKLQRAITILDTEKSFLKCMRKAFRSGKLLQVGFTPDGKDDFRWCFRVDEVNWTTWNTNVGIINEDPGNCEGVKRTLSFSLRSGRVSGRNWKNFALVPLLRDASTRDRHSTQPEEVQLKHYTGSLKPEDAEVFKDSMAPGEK

primary DRGs = assay type: cell-based, mouse
BAM-derived neurons = assay type: cell-based, mouse
induced nociceptors [3] = assay type: cell-based, mouse; remark: listed apart in the source
[4] = tested on: tdTomato-positive induced nociceptors; experiment: Calcium imaging of tdTomato-positive induced nociceptors with Trp channel agonists; assay type: cell-based, mouse
[5] = tested on: tdTomato-positive primary DRG neurons; experiment: Calcium imaging of tdTomato-positive primary DRG neurons with Trp channel agonists; assay type: cell-based, mouse
induced neurons = experiment: Extracellular multi-electrode array recording of induced neurons after agonist application; assay type: cell-based, mouse
[6] = tested on: KCl-responding neurons derived from the BAM factors; experiment: Calcium imaging of neurons derived from the BAM factors alone; assay type: cell-based, mouse
[7] = target: T2, P2X3 subtype of ionotropic purinergic receptors (Mus musculus, UniProt Q3UR32); experiment: Whole-cell patch clamp of P2X3 currents in induced nociceptors; assay type: cell-based; settings: 30 μM
T2 construct: Whole-cell patch recordings were performed on induced tdTomato-positive nociceptors, derived from TrpV1-Cre^+/−::tdTomato^+/− MEFs; endogenous in cells; host or cells: tdTomato-positive induced nociceptors reprogrammed from TrpV1-Cre+/-::tdTomato+/- mouse embryonic fibroblasts
T2 sequence (Q3UR32 1-397): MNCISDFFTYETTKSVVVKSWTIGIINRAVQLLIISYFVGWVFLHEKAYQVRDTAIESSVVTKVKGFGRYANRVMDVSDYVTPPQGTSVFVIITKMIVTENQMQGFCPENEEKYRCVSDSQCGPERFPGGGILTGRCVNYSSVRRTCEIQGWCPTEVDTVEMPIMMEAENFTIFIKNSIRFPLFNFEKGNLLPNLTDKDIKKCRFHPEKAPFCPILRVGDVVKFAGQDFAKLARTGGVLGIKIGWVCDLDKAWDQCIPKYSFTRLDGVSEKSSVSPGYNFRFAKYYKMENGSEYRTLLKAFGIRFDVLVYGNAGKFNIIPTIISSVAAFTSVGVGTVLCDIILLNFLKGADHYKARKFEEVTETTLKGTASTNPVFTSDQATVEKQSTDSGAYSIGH

[8] = induced nociceptors, capsaicin 1 μM, mustard oil 100 μM, menthol 250 μM, n=227 tdTomato-positive cells that responded to KCl
[9] = adult TrpV1::tdTomato mice, same procedure, n=249 tdTomato-positive cells that responded to KCl

O=C1[O][Pt]2([NH][C@@H]3CCCC[C@H]3[NH]2)[O]C1=O [oxaliplatin]
sensitization of capsaicin response (spikes) (induced nociceptors [1]): marked sensitization

NC1=N[C@H](O)[C@H]2[C@H]3O[C@]4(O)O[C@@H]([C@@H](O)[C@@]2(N1)[C@@H]4O)[C@]3(O)CO [TTX, tetrodotoxin]
induced neurons firing single TTX-resistant action potentials overshooting 0 mV (neurons/total) [2]: 8/16 and 7/12
induced neurons with TTX-resistant sodium currents greater than 50 pA (neurons/total) [2]: 14/15
neurons with TTX-resistant sodium currents (neurons/total) (induced human neurons): 10/10

CCCCC[C@H](O)/C=C/[C@H]1[C@H](O)CC(=O)[C@@H]1C/C=C\CCCC(=O)O [PGE2, Prostaglandin E2]
mean change in fluorescence absorption ratio, PGE2-sensitized capsaicin response (TrpV1 receptor; second 300 nM capsaicin application after 1 μM PGE2 for two minutes, n=41): 0.18±6.0*10^−3

ZD7288
neurons with ZD7288-sensitive HCN currents (neurons/total) [2]: 2/2

[Cl-].[K+] [KCl, potassium chloride]
CGRP release from primary DRGs (primary DRGs): dose-dependent increase in CGRP release
CGRP released, mean (s.e.m.) (BAM-derived neurons): 10.3 (2.6) pg ml-1
CGRP released, mean (s.e.m.) (induced nociceptors [3]): 390.4 (52.5) pg ml-1

CC1CCC(C(C)C)C(O)C1 (stereo not drawn) [menthol]
tdTomato-positive cells that responded to agonist [4, 8]: 3%
tdTomato-positive primary DRG neurons that responded to agonist [5, 9]: 2.5%

C=CCN=C=S [mustard oil]
tdTomato-positive cells that responded to agonist [4]: 9%
arrays with robust action potential firing after agonist application (arrays/total) (induced neurons): 3/3
tdTomato-positive primary DRG neurons that responded to agonist [5]: 2.5%

COc1cc(CNC(=O)CCCC/C=C/C(C)C)ccc1O [capsaicin]
tdTomato-positive cells that responded to agonist [4, 8]: 39%
neurons with inward currents elicited by capsaicin (neurons/total) ([2]; 1 μM capsaicin, voltage clamp, holding −80 mV): 6/11
KCl-responding neurons that responded to capsaicin (responders/total) [6]: 0/50
arrays with robust action potential firing after agonist application (arrays/total) (induced neurons; capsaicin 1 μM, mustard oil 100 μM): 3/3
mean change in fluorescence absorption ratio, initial capsaicin response (TrpV1 receptor; 300 nM capsaicin, before PGE2): 0.028±3.0*10^−3
tdTomato-positive primary DRG neurons that responded to agonist [5, 9]: 36%

Nc1ncnc2c1ncn2[C@@H]1O[C@H](COP(=O)(O)CP(=O)(O)OP(=O)(O)O)[C@@H](O)[C@H]1O [α, β-methylene-ATP]
neurons with rapidly-adapting inward currents elicited by agonist (neurons/total) [7]: 8/16
